In patent US8471063B2, “Michael systems as transglutaminase inhibitors” (Zedira GmbH, priority 2006, dated 2013):
*1 amine or outer side, *2 acyl side, *3 side chain or, on linkers, in order; H or OH if unused. Where a SMILES comes first, the peptide text is derived from it. [ ]: non-standard residue; d: D form. The star is where a group is joined. Nle(5E-ene,6-CO2Et) = CCOC(=O)/C=C/CC[C@H](N)C(=O)O; X7 = O=C(/C=C/CC[C@H](N[*:1])C(=O)[*:2])OCc1ccccc1; Tic = O=C(O)[C@@H]1Cc2ccccc2CN1; Cbz = O=C(OCc1ccccc1)*

The molecules below were run against T1, recombinant human tissue transglutaminase (His6-rh-TG2) (Homo sapiens, UniProt P21980) (assay: Inactivation of human tissue transglutaminase, fluorescence assay, IC50). Details: Table 1; 5 min preincubation, 37° C.
T1 sequence (P21980 1-687): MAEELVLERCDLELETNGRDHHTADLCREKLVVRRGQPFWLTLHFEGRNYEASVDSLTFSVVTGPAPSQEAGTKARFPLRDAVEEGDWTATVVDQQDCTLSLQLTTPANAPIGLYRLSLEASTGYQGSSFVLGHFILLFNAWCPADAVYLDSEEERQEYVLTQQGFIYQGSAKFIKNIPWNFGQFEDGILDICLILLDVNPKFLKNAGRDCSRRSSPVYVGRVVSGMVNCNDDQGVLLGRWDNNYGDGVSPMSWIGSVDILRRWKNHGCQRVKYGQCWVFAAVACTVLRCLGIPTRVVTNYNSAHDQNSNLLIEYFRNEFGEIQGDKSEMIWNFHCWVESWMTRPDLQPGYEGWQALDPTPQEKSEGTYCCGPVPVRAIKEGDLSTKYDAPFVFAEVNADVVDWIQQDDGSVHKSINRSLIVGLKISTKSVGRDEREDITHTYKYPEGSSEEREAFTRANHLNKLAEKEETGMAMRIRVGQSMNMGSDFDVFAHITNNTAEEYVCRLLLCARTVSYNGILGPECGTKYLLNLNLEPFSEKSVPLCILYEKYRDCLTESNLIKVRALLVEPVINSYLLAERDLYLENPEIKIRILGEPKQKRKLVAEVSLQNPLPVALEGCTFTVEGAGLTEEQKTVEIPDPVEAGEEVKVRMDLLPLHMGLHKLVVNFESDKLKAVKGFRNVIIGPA
Assay type: biochemical
Procedure: 250 μg of lyophilized his-tagged recombinant human tissue transglutaminase (His6-rh-TG2) are reconstituted by the addition of 150 μl of water (resulting buffer 50 mM of NaH2PO4, 150 mM of NaCl, pH=8).
A 10 mM inhibitor stock solution in DMSO is prepared and diluted with buffer (50 mM of Tris-HCl, 10 mM of CaCl2, 5 mM of DTT, pH=7.5, respectively) to the 20-fold of the concentration desired for the inhibition mixture (at least 1/50 dilution resulting in 2% DMSO concentration).
900 μl of an assay solution composed of 55.56 mM of Tris, 11.11 mM of CaCl2, 0.11% PEG8000, 5.56 mM of DTT, 5.56 mM of glycine methyl ester and 50 μM of Abz-APE(CAD-DNP)QEA-OH, (patent number:), pH=7.5 are placed in a cuvette and brought to a temperature of 37° C. in the measuring cell of a spectrophotometer. 50 μl of the respective inhibitor solution are added to said solution (resulting in a concentration of less than 0.2% of DMSO in the mixture).
7 μl of the transglutaminase solution reconstituted above are diluted with 51 μl of buffer (50 mM of Tris, 100 mM of NaCl, 5 mM of DTT, pH=7.5). 50 μl of said enzyme solution (10 μg His6-rhTG2) are added to the assay solution containing the respective inhibitor concentration. The mixture is incubated for 5 min at 37° C. before the measurement is performed. λexc=313 nm and λem=418 nm, 15 min)
The resulting enzyme activity was measured by analyzing the slope of the straight line obtained by the increase in fluorescence.
DMSO is used instead of inhibitor stock solution in order to determine the non-inhibited enzyme activity. IC50 values are determined by plotting the resulting enzyme activity against the logarithm of the inhibitor concentration. IC50 is defined as the concentration of an inhibitor at which enzyme activity is reduced to 50% after 5 min of preincubation.

Molecule	IC50 [µM]
N^α-(5-methylisoxazol-3-carbonyl)-{[L-7-amino-4-oxo-oct-2-ene-dicarboxylic acid]-1-isopropanoyl}-L-valinyl-L-prolinyl-leucine methyl ester [Compound 23]	0.056
CCOC(=O)C=CC(=O)CC[C@H](NC(C)=O)C(=O)N[C@@H](CCC(N)=O)C(=O)N1CCC[C@H]1C(=O)N[C@@H](CC(C)C)C(=O)OC [Compound 22, N^α-acetyl-{[L-7-Amino-4-oxo-oct-2-ene-dicarboxylic acid]-1-ethanoyl}-L-glutaminyl-L-prolinyl-L-leucine methyl ester]	0.07
COC(=O)/C=C/CC[C@H](NC(C)=O)C(=O)N[C@@H](CCC(N)=O)C(=O)N[C@@H](CCC(=O)O)C(=O)N[C@@H](C)C(=O)OC [Compound 10, N^α-Acetyl-{[(E)-(L)-6-amino-hept-2-ene-dicarboxylic acid]-1-methanoyl}-L-glutaminyl-L-glutamyl-L-alanine methyl ester]	0.33
N^α-benzyloxycarbonyl-{[(E)-(L)-6-amino-hept-2-ene-dicarboxylic acid]-1-ethanoyl}-L-leucinyl-L-prolinyl-L-glutamine methyl ester [Compound 21]	3.2
[(E)-(L)-6-(2-oxo-pyrrolidon-1-yl)-hept-2-ene-dicarboxylic acid-1-ethanoyl]-L-cyclohexylglycinyl-L-homoprolinyl-L-leucine methyl ester [Compound 17]	35
N^α-(2-fluorobenzoyl)-{[L-7-amino-4-oxo-oct-2-ene-dicarboxylic acid]-1-methanoyl}-L-valinyl-L-4-fluoroprolinyl-leucine isopropyl ester [Compound 24]	8
CC(=O)NCCC(=O)N1CCCC(C(=O)C(CC/C=C/C(=O)OC(C)C)N2Cc3nc[nH]c3CC2C(=O)NC(CNC(N)=O)C(=O)NC(CC(C)C)C(=O)N2CCCC2C(=O)NC(Cc2ccc(Oc3ccc(O)cc3)cc2)C(=O)O)C1 (centres unmarked) [Compound 42]	4
CCOC(=O)/C=C/CC[C@H](NC(=O)OCc1ccccc1)C(=O)N[C@@H](CCC(N)=O)C(=O)N1CCC[C@H]1C(=O)N[C@@H](CC(C)C)C(=O)OC [Compound 20, N^α-benzyloxycarbonyl-{[(E)-(L)-6-amino-hept-2-ene-dicarboxylic acid]-1-ethanoyl}-L-glutaminyl-L-prolinyl-L-leucine methyl ester] (Cbz-[Nle(5E-ene,6-CO2Et)]QPL-OMe)	2
COC(=O)/C=C/CC[C@H](NC(=O)OCc1ccccc1)C(=O)N[C@@H](Cc1ccc(F)cc1)C(=O)N1CCC[C@H]1C(=O)N[C@@H](CC(C)C)C(=O)OC [Compound 15, N^α-benzyloxycarbonyl-{[(E)-(L)-6-amino-hept-2-ene-dicarboxylic acid]-1-methanoyl}-L-(p-fluoro)-phenylalaninyl-L-prolinyl-L-leucine methyl ester]	0.88
CCOC(=O)C=CC(=O)CC[C@H](NC(=O)OCc1ccccc1)C(=O)N[C@H](C(=O)N1CCC[C@H]1C(=O)N[C@@H](CC(C)C)C(=O)OC)C(C)C [Compound 9, N^α-benzyloxycarbonyl-{[L-7-amino-4-oxo-oct-2-ene-dicarboxylic acid]-1-ethanoyl}-L-valinyl-L-prolinyl-leucine methyl ester]	18
COC(=O)/C=C/CC[C@H](NC(=O)OCc1ccccc1)C(=O)N[C@@H](Cc1ccccc1)C(=O)N1CCC[C@H]1C(=O)N[C@@H](CC(C)C)C(=O)OC [Compound 13, N^α-benzyloxycarbonyl-{[(E)-(L)-6-amino-hept-2-enedicarboxylic acid]-1-methanoyl}-L-phenylalaninyl-L-prolinyl-L-leucine methyl ester]	1.5
[(E)-(L)-6-(2-Oxo-pyrrolidon-1-yl)hept-2-ene-dicarboxylic acid 1-ethanoyl]-L-valinyl-L-homoprolinyl-L-leucine methyl ester [Compound 16]	22
COC(=O)/C=C/CC[C@H](NC(C)=O)C(=O)N[C@@H](CCC(N)=O)C(=O)N[C@@H](CCC(=O)O)C(=O)OC [Compound 11, N^α-acetyl-{[(E)-(L)-6-amino-hept-2-ene-dicarboxylic acid]-1-methanoyl}-L-glutaminyl-L-glutamyl methyl ester]	2.1
[(E)-(L)-6-(2-oxo-pyrrolidon-1-yl)-hept-2-ene-dicarboxylic acid-1-ethanoyl]-L-cyclohexylglycinyl-L-prolinyl-L-leucine methyl ester [Compound 18]	28
COC(=O)[C@H](CC(C)C)NC(=O)[C@@H]1Cc2ccccc2CN1C(=O)[C@H](CCC(N)=O)NC(=O)[C@H](CC/C=C/C(=O)OCc1ccccc1)NC(=O)[C@@H]1CCCN1C(=O)[C@H](CCC(N)=O)NC(=O)[C@@H]1CCCN1C(=O)OCc1ccccc1 [Compound 41] (Cbz-PQP[X7]Q[Tic]L-OMe)	0.215
COC(=O)/C=C/CC[C@H](NC(C)=O)C(=O)N[C@@H](Cc1ccc(F)cc1)C(=O)N1CCC[C@H]1C(=O)N[C@@H](CC(C)C)C(=O)OC [Compound 14, N^α-acetyl-{[(E)-(L)-6-amino-hept-2-ene-dicarboxylic acid]-1-methanoyl}-L-(p-fluoro)-phenylalaninyl-L-prolinyl-L-leucine methyl ester]	1.1
N^α-acetyl-{[(E)-(L)-6-Amino-hept-2-ene dicarboxylic acid]-1-methanoyl}-L-phenylalaninyl-L-prolinyl-L-leucine methyl ester [Compound 12]	1.8
CCOC(=O)/C=C/CC[C@H](NC(=O)OCc1ccccc1)C(=O)N[C@@H](CCC(N)=O)C(=O)N1CCC[C@H]1C(=O)N[C@@H](Cc1ccc(O)cc1)C(=O)OC [Compound 19, N^α-benzyloxycarbonyl-{[(E)-(L)-6-amino-hept-2-ene-dicarboxylic acid]-1-ethanoyl}-L-glutaminyl-L-proline-L-tyrosine methyl ester] (Cbz-[Nle(5E-ene,6-CO2Et)]QPY-OMe)	2.4

Same assay, conditions: Table 2; 5 min preincubation, 37° C.

Molecule	IC50 [µM]
N^α-benzyloxycarbonyl)-[(Z)-(L)-2-amino-7-oxo-oct-5-ene-dicarboxylic acid]-L-glutaminyl-L-prolinyl-L-leucine methyl ester [Compound 3.2.10]	56
COC(=O)C(CC(C)C)NC(=O)C1CCCN1C(=O)C(CCC(N)=O)NC(=O)C(CCC=CC#N)NC(=O)OCc1ccccc1 [Compound 3.2.11, N^α-benzyloxycarbonyl)-[(Z)-(L)-2-amino-6-cyano-hex-5-ene-dicarboxylic acid]-L-glutaminyl-L-prolinyl-L-leucine methyl ester]	43
